# Source: PMC11089506 (Journal of Medicinal Chemistry, 2024)
# Where a name gives a salt, the structure may show the parent alone. Read-outs that look alike come from different tables or passages of the source.
# What was measured:
# MDR1 = experiment: MDR1-MDCK II permeability assay; assay type: in vitro ADME; settings: dog, MDCK-MDR1, pH 7.4, Table S6
# MDR1 (P-gp) = experiment: MDR1-MDCK II permeability assay; assay type: in vitro ADME; settings: dog, MDCK-MDR1, pH 7.4
# MDR1-MDCKII = experiment: MDR1-MDCK II permeability assay; assay type: in vitro ADME; settings: Table S6
# human 5-HT2CR [1] = molecular target: T1, human 5-HT2CR (Homo sapiens, UniProt P28335); experiment: Ca2+/Fluo-4 assay, antagonist mode (5-HT EC90 as agonist), stable 5-HT2CR-HEK293 cells
# T1 sequence (P28335 33-458): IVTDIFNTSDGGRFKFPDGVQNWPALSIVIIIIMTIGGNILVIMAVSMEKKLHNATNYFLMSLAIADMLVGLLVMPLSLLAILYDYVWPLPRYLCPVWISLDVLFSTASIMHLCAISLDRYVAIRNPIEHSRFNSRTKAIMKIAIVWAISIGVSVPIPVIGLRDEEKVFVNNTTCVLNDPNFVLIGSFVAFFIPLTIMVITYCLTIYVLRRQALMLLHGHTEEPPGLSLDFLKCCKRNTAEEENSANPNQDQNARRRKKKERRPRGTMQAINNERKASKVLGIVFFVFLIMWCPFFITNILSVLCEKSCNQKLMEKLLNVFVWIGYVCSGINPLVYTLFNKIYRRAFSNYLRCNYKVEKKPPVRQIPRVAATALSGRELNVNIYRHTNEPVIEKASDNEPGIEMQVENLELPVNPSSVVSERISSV
# human 5-HT2CR [2] = molecular target: T1, human 5-HT2CR; experiment: Ca2+/Fluo-4 assay, agonist mode, stable 5-HT2CR-HEK293 cells; settings: for 5-HT2CR Rmax (%): % of the 5-HT Rmax; for 5-HT2CR Rmax ± S.E.M.: % of the 5-HT Rmax on the same 96-well plate
# human 5-HT2AR = human 5-HT2AR (Homo sapiens, UniProt P28223); experiment: Ca2+/Fluo-4 assay, agonist mode, stable 5-HT2AR-HEK293 cells; settings: for 5-HT2AR Rmax (%): % of the 5-HT Rmax; for 5-HT2AR Rmax ± S.E.M.: % of the 5-HT Rmax on the same 96-well plate
# human 5-HT2AR, sequence (P28223 whole entry): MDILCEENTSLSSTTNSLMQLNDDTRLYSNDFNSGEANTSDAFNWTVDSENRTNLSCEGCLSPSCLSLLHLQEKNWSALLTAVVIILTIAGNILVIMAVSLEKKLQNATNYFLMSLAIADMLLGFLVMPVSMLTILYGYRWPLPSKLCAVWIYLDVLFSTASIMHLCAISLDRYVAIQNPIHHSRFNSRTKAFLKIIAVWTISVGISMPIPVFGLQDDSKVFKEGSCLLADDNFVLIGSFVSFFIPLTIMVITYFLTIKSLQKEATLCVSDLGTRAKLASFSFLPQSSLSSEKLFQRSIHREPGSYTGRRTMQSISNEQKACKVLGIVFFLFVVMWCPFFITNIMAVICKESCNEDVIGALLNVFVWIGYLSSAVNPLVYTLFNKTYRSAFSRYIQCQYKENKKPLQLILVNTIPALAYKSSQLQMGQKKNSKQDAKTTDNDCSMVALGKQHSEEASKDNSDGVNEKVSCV
# [3] = tested on: 5-HT2AR, 5-HT2BR, and 5-HT2CR; settings: cited from earlier work
# human 5-HT2CR [4] = molecular target: T1, human 5-HT2CR; experiment: [125I]DOI competition binding assay
# Method: (§1) Following incubation, the samples were filtered rapidly under vacuum through glass fiber filters (GF/B, Packard) presoaked with 0.3% polyethylenimine and rinsed several times with ice cold wash buffer (50 mM Tris-HCl, pH 7.4) using a 96-sample cell harvester (Unifilter, Packard). The filters were dried and then counted for radioactivity in a scintillation counter (Topcounter, Packard) using a scintillation cocktail (Microscint-0, Packard).
# human 5-HT2BR = molecular target: T2, human 5-HT2BR (Homo sapiens, UniProt P41595); experiment: [125I]DOI competition binding assay
# T2 construct: host or cells: HEK293 (membrane homogenates)
# T2 sequence (P41595 whole entry): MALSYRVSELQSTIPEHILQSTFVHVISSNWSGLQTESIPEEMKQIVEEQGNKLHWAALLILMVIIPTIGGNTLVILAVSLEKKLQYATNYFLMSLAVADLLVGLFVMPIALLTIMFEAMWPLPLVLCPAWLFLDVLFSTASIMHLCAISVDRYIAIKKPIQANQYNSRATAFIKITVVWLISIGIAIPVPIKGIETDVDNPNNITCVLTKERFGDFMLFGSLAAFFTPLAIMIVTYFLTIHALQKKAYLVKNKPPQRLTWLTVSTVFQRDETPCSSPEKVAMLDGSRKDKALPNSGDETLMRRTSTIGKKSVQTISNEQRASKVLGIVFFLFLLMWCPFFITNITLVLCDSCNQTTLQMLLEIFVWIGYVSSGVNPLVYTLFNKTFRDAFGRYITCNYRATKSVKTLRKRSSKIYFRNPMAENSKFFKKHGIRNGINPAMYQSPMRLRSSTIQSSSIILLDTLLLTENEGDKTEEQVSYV
# Method: as §1
# [5] = 5-HT2CR pIC50 ± S.E.M., Table S2
# [6] = 5-HT2CR EC50 (nM), Table 1, at least 3 independent experiments
# [7] = read-out: 5-HT2AR EC50, Table 1, at least 3 independent experiments
# [8] = 5-HT2CR EC50 (nM), Table 2, at least 3 independent experiments
# [9] = read-out: 5-HT2CR EC50, Table 1, at least 3 independent experiments
compound,measurement,setting,value
COCCc1ccc(OCC(O)CNC(C)C)cc1 (centres unmarked) [Metoprolol],recovery at […],MDR1; read-out: Mean Recovery A to B,97%
same,Papp A→B at […],MDR1 (P-gp),24.2 ×10⁻⁶ cm/s
same,Rank Papp,MDR1-MDCKII,High
"COc1cc(C2CCCNC2)c(OC)cc1C#N (centres unmarked) [Compound 10eu, 2,5-Dimethoxy-4-(piperidin-3-yl)benzonitrile]",IC50,human 5-HT2CR [1]; [5],~15.8 µM
same,EC50,human 5-HT2CR [2]; [6],> 50000 nM
same,5-HT2AR pEC50 ± S.E.M.,human 5-HT2AR; Table S2,6.56 ± 0.13
same,EC50,human 5-HT2AR; [7],270 nM
CN(C)CCc1c[nH]c2cccc(O)c12 [psilocin],"agonist profile at 5-HT2AR, 5-HT2BR, and 5-HT2CR (in words)",[3],equipotent and equiefficacious agonist
CC(C)(C)NCC(O)COc1cccc2c1CC(O)C(O)C2 (centres unmarked) [Nadolol],recovery at […],MDR1; read-out: Mean Recovery A to B,93%
same,Papp A→B at […],MDR1 (P-gp),0.54 ×10⁻⁶ cm/s
same,Rank Papp,MDR1-MDCKII,Low
C[C@H]1O[C@@H](O[C@H]2[C@@H](O)C[C@H](O[C@H]3[C@@H](O)C[C@H](O[C@H]4CC[C@@]5(C)[C@H](CC[C@@H]6[C@@H]5C[C@@H](O)[C@]5(C)[C@@H](C7=CC(=O)OC7)CC[C@]65O)C4)O[C@@H]3C)O[C@@H]2C)C[C@H](O)[C@@H]1O [Digoxin],recovery at […],MDR1; read-out: Mean Recovery B to A,92%
same,Papp A→B at […],MDR1 (P-gp),0.22 ×10⁻⁶ cm/s
same,Papp B→A at […],MDR1 (P-gp),12.4 ×10⁻⁶ cm/s
same,Rank Papp,MDR1-MDCKII,Low
"COc1cc(C2CCCNC2)c(OC)cc1I (centres unmarked) [Compound 9eu, 3-(4-Iodo-2,5-dimethoxyphenyl)piperidine]",IC50,human 5-HT2CR [1]; [5],1.1 µM
same,EC50,human 5-HT2CR [2]; [6],> 50000 nM
same,5-HT2AR pEC50 ± S.E.M.,human 5-HT2AR; Table S2,7.43 ± 0.02
same,EC50,human 5-HT2AR; [7],37 nM
"COc1cc(C2CCCNC2)c(OC)cc1Cl (centres unmarked) [Compound 8eu, 3-(4-Chloro-2,5-dimethoxyphenyl)piperidine]",IC50,human 5-HT2CR [1]; [5],0.871 µM
same,EC50,human 5-HT2CR [2]; [6],> 50000 nM
same,5-HT2AR pEC50 ± S.E.M.,human 5-HT2AR; Table S2,7.18 ± 0.05
same,EC50,human 5-HT2AR; [7],66 nM
"COc1cc(CC(C)N)c(OC)cc1I (racemic) [(±)-DOI, 1-(4-iodo-2,5-dimethoxyphenyl)propan-2-amine, reference compound]",Ki,human 5-HT2CR [4],0.00051 µM
same,Ki,human 5-HT2BR,0.00123 µM
"COc1cc(C(F)(F)F)c(OC)cc1CCN [Compound 18, 2-(2,5-Dimethoxy-4-(trifluoromethyl)phenyl)ethan-1-amine Hydrochloride, reference compound]",EC50,"human 5-HT2CR [2]; 5-HT2CR pEC50 ± S.E.M., Table S2",7.59 nM
same,5-HT2CR Rmax (%),human 5-HT2CR [2]; Table 2,71%
same,5-HT2CR Rmax ± S.E.M.,human 5-HT2CR [2]; Table S2,71 ± 2%
same,EC50,"human 5-HT2AR; 5-HT2AR pEC50 ± S.E.M., Table S2",0.724 nM
same,fold higher agonist potency at 5-HT2AR than at 5-HT2CR (selectivity),human 5-HT2AR; 5-HT2AR vs 5-HT2CR,10 fold
same,5-HT2AR Rmax (%),human 5-HT2AR; Table 2,67%
same,5-HT2AR Rmax ± S.E.M.,human 5-HT2AR; Table S2,67 ± 5%
"COc1cc(C2CCCNC2)c(OC)cc1SC(C)C (centres unmarked) [Compound 17eu, 3-(4-(Isopropylthio)-2,5-dimethoxyphenyl)piperidine]",EC50,human 5-HT2CR [2]; [6],> 10000 nM
same,5-HT2AR pEC50 ± S.E.M.,human 5-HT2AR; Table S2,6.81 ± 0.09
same,EC50,human 5-HT2AR; [7],160 nM
"Cl.FC(F)(F)c1ccc(C2CCCNC2)cc1 (centres unmarked) [Compound 21, 3-(4-(Trifluoromethyl)phenyl)piperidine Hydrochloride]",agonist activity at 5-HT2CR (in words),human 5-HT2CR [2],negligible agonist activity
same,EC50,human 5-HT2CR [2]; [8],> 10000 nM
same,agonist activity at 5-HT2AR (in words),human 5-HT2AR,negligible agonist activity
same,EC50,"human 5-HT2AR; 5-HT2AR EC50 (nM), Table 2, at least 3 independent experiments",> 10000 nM
"COc1cc(C2CCCNC2)c(OC)cc1Br (centres unmarked) [Compound 6eu, 3-(4-Bromo-2,5-dimethoxyphenyl)piperidine]",IC50,"human 5-HT2CR [1]; 5-HT2CR IC50, Table 1",0.64 µM
same,IC50,human 5-HT2CR [1]; [5],0.631 µM
same,agonist activity at 5-HT2CR (in words),human 5-HT2CR [2],devoid of measurable agonist activity
same,EC50,human 5-HT2CR [2]; [6],> 50000 nM
same,EC50,"human 5-HT2AR; 5-HT2AR EC50 (nM), Table 1, at least 3 independent experiments",69 nM
"COc1cc(C2CCCNC2)c(OC)cc1C.Cl (centres unmarked) [Compound 12dis, 3-(2,5-Dimethoxy-4-methylphenyl)piperidine Hydrochloride]",5-HT2CR pEC50 ± S.E.M.,human 5-HT2CR [2]; Table S2,5.92 ± 0.08
same,EC50,human 5-HT2CR [2]; [9],1200 nM
same,5-HT2AR pEC50 ± S.E.M.,human 5-HT2AR; Table S2,6.58 ± 0.06
same,EC50,human 5-HT2AR; [7],260 nM
"CCN1CCC[C@@H](c2cc(OC)c(C(F)(F)F)cc2OC)C1 [(S)-20, (S)-3-(2,5-Dimethoxy-4-(trifluoromethyl)phenyl)-1-ethylpiperidine]",EC50,human 5-HT2CR [2]; [8],> 10000 nM
same,5-HT2AR Rmax (%),human 5-HT2AR; Table 2,44%
same,5-HT2AR pEC50 ± S.E.M.,human 5-HT2AR; Table S2,5.82 ± 0.08
same,5-HT2AR Rmax ± S.E.M.,human 5-HT2AR; Table S2,44 ± 3%
"CCc1cc(OC)c(C2CCCNC2)cc1OC.Cl (centres unmarked) [Compound 13eu, 3-(4-Ethyl-2,5-dimethoxyphenyl)piperidine Hydrochloride]",agonist activity at 5-HT2CR (in words),human 5-HT2CR [2],measurable agonist activity
same,5-HT2CR pEC50 ± S.E.M.,human 5-HT2CR [2]; Table S2,6.42 ± 0.12
same,EC50,human 5-HT2CR [2]; [9],380 nM
same,5-HT2AR pEC50 ± S.E.M.,human 5-HT2AR; Table S2,7.39 ± 0.11
same,EC50,human 5-HT2AR; [7],41 nM
"COc1cc(C2CCCNC2)c(OC)cc1C.Cl (centres unmarked) [Compound 12eu, 3-(2,5-Dimethoxy-4-methylphenyl)piperidine Hydrochloride]",EC50,human 5-HT2CR [2]; [6],> 10000 nM
same,5-HT2AR pEC50 ± S.E.M.,human 5-HT2AR; Table S2,6.98 ± 0.10
same,EC50,human 5-HT2AR; [7],100 nM
"COc1cc(C2CCCNC2)ccc1C(F)(F)F.Cl (centres unmarked) [Compound 23eu, 3-(3-Methoxy-4-(trifluoromethyl)phenyl)piperidine Hydrochloride]",EC50,human 5-HT2CR [2]; [8],> 10000 nM
same,5-HT2AR Rmax (%),human 5-HT2AR; Table 2,68%
same,5-HT2AR pEC50 ± S.E.M.,human 5-HT2AR; Table S2,5.74 ± 0.09
same,5-HT2AR Rmax ± S.E.M.,human 5-HT2AR; Table S2,68 ± 7%
same,EC50,"human 5-HT2AR; read-out: 5-HT2AR EC50, Table 2, at least 3 independent experiments",1800 nM
"Br.COc1cc(C2CCNC2)c(OC)cc1Br (centres unmarked) [Compound 5eu, 3-(4-Bromo-2,5-dimethoxyphenyl)pyrrolidine Hydrobromide]",Rmax at 5-HT2CR,human 5-HT2CR [2],16%
same,5-HT2CR Rmax (%),human 5-HT2CR [2]; Table 1,73 ± 3%
same,5-HT2CR pEC50 ± S.E.M.,human 5-HT2CR [2]; Table S2,7.59 ± 0.03
same,5-HT2CR Rmax ± S.E.M.,human 5-HT2CR [2]; Table S2,73 ± 3%
same,EC50,human 5-HT2CR [2]; [9],26 nM
same,5-HT2AR Rmax (%),human 5-HT2AR; Table 1,57 ± 3%
same,5-HT2AR pEC50 ± S.E.M.,human 5-HT2AR; Table S2,8.28 ± 0.07
same,5-HT2AR Rmax ± S.E.M.,human 5-HT2AR; Table S2,57 ± 3%
same,EC50,human 5-HT2AR; [7],5.3 nM
